Converted amounts (≈) assume the structure as drawn.
How the values were obtained:
[1] = system: E. faecalis VSE 1; experiment: MIC, broth microdilution, vancomycin-sensitive E. faecalis (VSE 1); format: cell-based, Enterococcus faecalis; conditions: for MIC: Enterococcus faecalis VSE 1 (vancomycin-sensitive), read-out: MIC; for MIC-fold improvement vs. vancomycin: VSE 1, ratio of MIC of vancomycin and MIC of analogue
In short: (§1)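 Controls (ultrapure water; broth not inoculated) were included throughout CLSI-compliant broth microdilution. One condition supplemented analogue or comparator with 10 μM vancomycin, final level.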

[2] = system: E. faecalis VRE 6; experiment: MIC, broth microdilution, vancomycin-resistant E. faecalis VRE 6 (VanA); format: cell-based, Enterococcus faecalis; conditions: for MIC: Enterococcus faecalis VRE 6 (vancomycin-resistant), read-out: MIC; for MIC-fold improvement vs. vancomycin: VRE 6, ratio of MIC of vancomycin and MIC of analogue
In short: as §1

[3] = system: E. faecalis VRE 53; experiment: MIC, broth microdilution, vancomycin-resistant E. faecalis VRE 53 (VanA); format: cell-based, Enterococcus faecalis; conditions: for MIC: Enterococcus faecalis VRE 53 (vancomycin-resistant), read-out: MIC; for MIC-fold improvement vs. vancomycin: VRE 53, ratio of MIC of vancomycin and MIC of analogue
In short: as §1

[4] = system: E. faecalis VRE 29; experiment: MIC, broth microdilution, vancomycin-resistant E. faecalis VRE 29 (VanA); format: cell-based, Enterococcus faecalis; conditions: for MIC: Enterococcus faecalis VRE 29 (vancomycin-resistant), read-out: MIC; for MIC-fold improvement vs. vancomycin: VRE 29, ratio of MIC of vancomycin and MIC of analogue
In short: as §1

[5] = system: E. faecalis VRE 37; experiment: MIC, broth microdilution, vancomycin-resistant E. faecalis VRE 37 (VanA); format: cell-based, Enterococcus faecalis; conditions: for MIC: Enterococcus faecalis VRE 37 (vancomycin-resistant), read-out: MIC; for MIC-fold improvement vs. vancomycin: VRE 37, ratio of MIC of vancomycin and MIC of analogue
In short: as §1

[6] = system: Murine leukemia (L1210) cells; experiment: Cytostatic activity, L1210 cell proliferation; format: cell-based; conditions: mean ± SD of three experiments; highest concentration tested 250 µM; 2 days; read-out: Toxicity (IC50) L1210
In short: (§2)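 Test compounds, serially diluted, received an equal volume of cell suspension at 300,000–500,000 cells/mL. After 37°C incubation (2 days for L1210, 3 for CEM, 4 for HeLa), cells were enumerated by Coulter counting and 50%-inhibitory concentrations calculated per cell type.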

[7] = system: human T-lymphocyte (CEM) cells; experiment: Cytostatic activity, CEM cell proliferation; format: cell-based; conditions: mean ± SD of three experiments; highest concentration tested 250 µM; 3 days; read-out: Toxicity (IC50) CEM
In short: as §2

[8] = system: human cervix carcinoma (HeLa) cells; experiment: Cytostatic activity, HeLa cell proliferation; format: cell-based; conditions: mean ± SD of three experiments; highest concentration tested 250 µM; 4 days; read-out: Toxicity (IC50) HeLa
In short: as §2

[9] = system: L1210, CEM and HeLa cell lines; experiment: Cytostatic activity, average or summary over L1210, CEM and HeLa; format: cell-based; conditions: average of L1210, CEM and HeLa; read-out: Toxicity (IC50) Average
In short: as §2

[10] = system: S. aureus VSSA (ATCC 6538); experiment: MIC, broth microdilution, vancomycin-sensitive S. aureus (VSSA/MSSA, ATCC 6538); format: cell-based, Staphylococcus aureus; conditions: for MIC: Staphylococcus aureus VSSA, read-out: MIC; for MIC-fold improvement vs. vancomycin: VSSA, ratio of MIC of vancomycin and MIC of analogue
In short: as §1

[11] = system: S. aureus VISA/HIP5827; experiment: MIC, broth microdilution, vancomycin-intermediate S. aureus VISA HIP5827; format: cell-based, Staphylococcus aureus; conditions: for MIC: Staphylococcus aureus VISA/HIP5827, read-out: MIC; for MIC-fold improvement vs. vancomycin: VISA/HIP5827, ratio of MIC of vancomycin and MIC of analogue
In short: as §1

[12] = system: S. aureus VRSA; experiment: MIC, broth microdilution, vancomycin-resistant S. aureus (VRSA); format: cell-based, Staphylococcus aureus; conditions: for MIC: Staphylococcus aureus VRSA, read-out: MIC; for MIC-fold improvement vs. vancomycin: VRSA, ratio of MIC of vancomycin and MIC of analogue
In short: as §1

[13] = system: MRSA KS2; experiment: MIC, broth microdilution, MRSA KS2; format: cell-based, Staphylococcus aureus; conditions: for MIC-fold improvement vs. vancomycin: MRSA KS2, ratio of MIC of vancomycin and MIC of analogue; for MIC: Staphylococcus aureus MRSA KS2, read-out: MIC
In short: as §1

[14] = system: MRSA KS6; experiment: MIC, broth microdilution, MRSA KS6; format: cell-based, Staphylococcus aureus; conditions: for MIC-fold improvement vs. vancomycin: MRSA KS6, ratio of MIC of vancomycin and MIC of analogue; for MIC: Staphylococcus aureus MRSA KS6, read-out: MIC
In short: as §1

[15] = system: MRSA KS89; experiment: MIC, broth microdilution, MRSA KS89; format: cell-based, Staphylococcus aureus; conditions: for MIC-fold improvement vs. vancomycin: MRSA KS8, ratio of MIC of vancomycin and MIC of analogue; for MIC: Staphylococcus aureus MRSA KS8, read-out: MIC
In short: as §1

[16] = system: MRSA KS1; experiment: MIC, broth microdilution, MRSA KS1; format: cell-based, Staphylococcus aureus; conditions: for MIC-fold improvement vs. vancomycin: MRSA KS1, ratio of MIC of vancomycin and MIC of analogue; for MIC: Staphylococcus aureus MRSA KS1, read-out: MIC
In short: as §1

With `CN[C@H](CC(C)C)C(=O)N[C@H]1C(=O)N[C@@H](CC(N)=O)C(=O)N[C@H]2C(=O)N[C@H]3C(=O)N[C@H](C(=O)N[C@H](C(=O)NCC(=O)Nc4ccc(OC)c(OC)c4)c4cc(O)cc(O)c4-c4cc3ccc4O)[C@H](O)c3ccc(c(Cl)c3)Oc3cc2cc(c3O[C@@H]2O[C@H](CO)[C@@H](O)[C@H](O)[C@H]2O[C@H]2C[C@](C)(N)[C@H](O)[C@H](C)O2)Oc2ccc(cc2Cl)[C@H]1O` [Vanc-7] the MIC [1] was 0.78 µM (≈ 1.28 µg/mL), the “MIC-fold improvement vs. vancomycin” value [1] was 2 and the MIC [2] was 12.5 µM (≈ 20.5 µg/mL). For the same compound, the “MIC-fold improvement vs. vancomycin” value [2] was 16, the MIC [3] was 12.5 µM (≈ 20.5 µg/mL) and the “MIC-fold improvement vs. vancomycin” value [3] was 32. The MIC [4] was 12.5 µM (≈ 20.5 µg/mL), the “MIC-fold improvement vs. vancomycin” value [4] was 32 and the MIC [5] was 12.5 µM (≈ 20.5 µg/mL). The “MIC-fold improvement vs. vancomycin” value [5] was 64, the IC50 [6] was over 250 µM and the IC50 [7] was over 250 µM. The IC50 [8] was over 250 µM, the IC50 [9] was over 250 µM and the MIC [10] was 0.78 µM (≈ 1.28 µg/mL). For the same compound, the “MIC-fold improvement vs. vancomycin” value [10] was 1, the MIC [11] was 0.78 µM (≈ 1.28 µg/mL) and the “MIC-fold improvement vs. vancomycin” value [11] was 8. The MIC [12] was 12.5 µM (≈ 20.5 µg/mL), the “MIC-fold improvement vs. vancomycin” value [12] was 8 and the “MIC-fold improvement vs. vancomycin” value [13] was 2. For the same compound, the MIC [13] was 0.39 µM (≈ 0.64 µg/mL), the “MIC-fold improvement vs. vancomycin” value [14] was 1 and the MIC [14] was 0.78 µM (≈ 1.28 µg/mL). For the same compound, the “MIC-fold improvement vs. vancomycin” value [15] was 1, the MIC [15] was 0.78 µM (≈ 1.28 µg/mL) and the “MIC-fold improvement vs. vancomycin” value [16] was 1. The MIC [16] was 0.78 µM (≈ 1.28 µg/mL).

With `CNC(CC(C)C)C(=O)NC1C(=O)NC(CC(N)=O)C(=O)NC2C(=O)NC3C(=O)NC(C(=O)NC(C(=O)NCC(=O)Nc4ccc(-c5ccc(OC)cc5)cc4)c4cc(O)cc(O)c4-c4cc3ccc4O)C(O)c3ccc(c(Cl)c3)Oc3cc2cc(c3OC2OC(CO)C(O)C(O)C2OC2CC(C)(N)C(O)C(C)O2)Oc2ccc(cc2Cl)C1O` (centres unmarked) [Vanc-57] the MIC [1] was at most 0.05 µM, the “MIC-fold improvement vs. vancomycin” value [1] was at least 32 and the MIC [2] was 1.56 µM (≈ 2.63 µg/mL). For the same compound, the “MIC-fold improvement vs. vancomycin” value [2] was 128, the MIC [3] was 12.5 µM (≈ 21.1 µg/mL) and the “MIC-fold improvement vs. vancomycin” value [3] was 32. The MIC [4] was 3.13 µM (≈ 5.28 µg/mL), the “MIC-fold improvement vs. vancomycin” value [4] was 128 and the MIC [5] was 1.56 µM (≈ 2.63 µg/mL). The “MIC-fold improvement vs. vancomycin” value [5] was 256, the IC50 [6] was 6.3 ± 0.2 µM and the IC50 [7] was 3.7 ± 0.2 µM. It also gave an IC50 [8] of 41 ± 12 µM, an IC50 [9] of 17 µM and an MIC [10] of 0.20 µM (≈ 0.338 µg/mL). For the same compound, the “MIC-fold improvement vs. vancomycin” value [10] was 4, the MIC [11] was 0.39 µM (≈ 0.658 µg/mL) and the “MIC-fold improvement vs. vancomycin” value [11] was 16. The MIC [12] was 1.56 µM (≈ 2.63 µg/mL), the “MIC-fold improvement vs. vancomycin” value [12] was 64 and the “MIC-fold improvement vs. vancomycin” value [13] was 4. For the same compound, the MIC [13] was 0.20 µM (≈ 0.338 µg/mL), the “MIC-fold improvement vs. vancomycin” value [14] was 0.5 and the MIC [14] was 1.56 µM (≈ 2.63 µg/mL). The “MIC-fold improvement vs. vancomycin” value [15] was 2, the MIC [15] was 0.39 µM (≈ 0.658 µg/mL) and the “MIC-fold improvement vs. vancomycin” value [16] was 8. The MIC [16] was 0.10 µM (≈ 0.169 µg/mL).

Source: publication PMC6001238, “Iterative Chemical Engineering of Vancomycin Leads to Novel Vancomycin Analogs With a High in Vitro Therapeutic Index” (Frontiers in Microbiology, 2018)
